Non-standard residues stand in square brackets, D forms with d. Residues, ends and D or L forms follow the SMILES beside them. *: point of attachment. Palmitoyl = CCCCCCCCCCCCCCCC(=O)*; Lauroyl = CCCCCCCCCCCC(=O)*; Octanoyl = CCCCCCCC(=O)*
What follows are compounds tested against T1, bombesin receptor (Mus musculus, UniProt P21729) (assay: Competition at the bombesin receptor for iodinated GRP (125I-GRP), mouse pancreas membranes). Settings: 125I-GRP competition, read-out: Binding KD.
T1 construct: The pancreata from one or more mice were pooled, minced, and homogenized; from tissue; host or cells: mouse pancreas (membrane pellet in A1; chopped tissue in A2)
T1 sequence (P21729 whole entry): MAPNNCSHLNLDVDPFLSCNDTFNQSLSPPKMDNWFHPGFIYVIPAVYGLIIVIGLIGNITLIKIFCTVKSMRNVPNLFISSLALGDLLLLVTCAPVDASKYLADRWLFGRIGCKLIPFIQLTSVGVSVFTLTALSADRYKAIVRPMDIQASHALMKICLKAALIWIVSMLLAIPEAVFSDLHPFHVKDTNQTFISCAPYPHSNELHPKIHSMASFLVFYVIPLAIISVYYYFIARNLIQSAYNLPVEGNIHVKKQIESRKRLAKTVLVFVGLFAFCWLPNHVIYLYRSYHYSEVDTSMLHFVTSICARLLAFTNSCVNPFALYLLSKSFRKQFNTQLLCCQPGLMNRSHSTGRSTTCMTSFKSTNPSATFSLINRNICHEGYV
Parameters: species or system mice
Protocol: The pancreata from one or more mice were pooled, minced, and homogenized in 50 mM HEPES (pH 7.4) containing 120 mM NaCl and 5 mM KC1 at 4° C. and centrifuged at 37,500 ×g for 15 minutes. The pellet was resuspended in 50 mM HEPES (pH 7.4) containing 10 mM EDTA and 300 mM KC1 and incubated for 30 minutes at 4° C. The suspension was centrifuged as above and the pellet was washed two times in 50 mM HEPES (pH 7.4) containing protease inhibitors (10 uM phenylmethylsulfonyl fluoride, 1 uM thiorphan, 40 ug/ml bacitracin, 10 mM iodoacetimide and 4 ug/ml leupeptin), and again centrifuged. The tissue was then resuspended in incubation buffer (1 ml per 4 mg pancreas) and incubated for 15 minutes at room temperature, then 250 ul was added to each assay tube to commence the assay. The assay tubes contained incubation buffer consisting of 50 mM HEPES (pH 7.4), 0.5% BSA, protease inhibitors, 2 mM MnCl2, 1 uM somatostatin, and concentrations of ^125 I-GRP and peptides as needed in a final volume of 500 ul. The assay was allowed to proceed to equilibrium for 90 minutes at room temperature. After this time, the contents of each tube was rapidly filtered over Whatman GF/B filters presoaked in 0.1% polyethyleneimine and the filters were rapidly washed three times with ice-cold 50 mM HEPES (pH 7.4). Filter-bound radioactivity was quantitated in a gamma counter. Competition of iodinated GRP binding by test compounds or standards was expressed as a percentage of ^125 I-GRP binding in the absence of peptide. Affinity and maximal binding were calculated with Ligand (Biosoft, Cambridge, UK).

Row | Kd [nM] | Compound
1 | 5 | CCCCCCCC(=O)N[C@@H](CCC(N)=O)C(=O)N[C@@H](Cc1c[nH]c2ccccc12)C(=O)N[C@@H](C)C(=O)N[C@H](C(=O)N[C@H](C)C(=O)N[C@@H](Cc1c[nH]cn1)C(=O)N[C@@H](CC(C)C)C(N)=O)C(C)C [Example 1, N-(n-Octanoyl)-Gln-Trp-Ala-Val-ala-His-Leu-NH2] (Octanoyl-QWAV[dA]HL-NH2)
2 | 320 | CCCCCCCCCCCC(=O)N[C@@H](CCC(N)=O)C(=O)N[C@@H](Cc1c[nH]c2ccccc12)C(=O)N[C@@H](C)C(=O)N[C@H](C(=O)N[C@H](C)C(=O)N[C@@H](Cc1c[nH]cn1)C(=O)N[C@@H](CC(C)C)C(N)=O)C(C)C [Example 2, N-(Lauroyl)-Gln-Trp-Ala-Val-ala-His-Leu-NH2] (Lauroyl-QWAV[dA]HL-NH2)
3 | 350 | CCCCCCCCCCCCCCCC(=O)N[C@@H](CCC(N)=O)C(=O)N[C@@H](Cc1c[nH]c2ccccc12)C(=O)N[C@@H](C)C(=O)N[C@H](C(=O)N[C@H](C)C(=O)N[C@@H](Cc1c[nH]cn1)C(=O)N[C@@H](CC(C)C)C(N)=O)C(C)C [Example 3, N-(Palmitoyl)-Gln-Trp-Ala-Val-ala-His-Leu-NH2] (Palmitoyl-QWAV[dA]HL-NH2)
4 | 58 | CCCCCCCC(=O)N[C@@H](CCC(N)=O)C(=O)N[C@@H](Cc1c[nH]c2ccccc12)C(=O)N[C@@H](C)C(=O)N[C@H](C(=O)N[C@H](C)C(=O)N[C@@H](Cc1c[nH]cn1)C(N)=O)C(C)C [Example 4, N-(n-Octanoyl)-Gln-Trp-Ala-Val-ala-His-NH2] (Octanoyl-QWAV[dA]H-NH2)
5 | 1500 | CC(=O)N[C@@H](CCC(N)=O)C(=O)N[C@@H](Cc1c[nH]c2ccccc12)C(=O)N[C@@H](C)C(=O)N[C@H](C(=O)N[C@H](C)C(=O)N[C@@H](Cc1c[nH]cn1)C(N)=O)C(C)C [Nα-AcetylQ W A V a H #] (Ac-QWAV[dA]H-NH2)
6 | 69 | CC(=O)N[C@@H](CCC(N)=O)C(=O)N[C@@H](Cc1c[nH]c2ccccc12)C(=O)N[C@@H](C)C(=O)N[C@H](C(=O)N[C@H](C)C(=O)N[C@@H](Cc1c[nH]cn1)C(=O)N[C@@H](CC(C)C)C(N)=O)C(C)C [Nα-AcetylQ W A V a H L #] (Ac-QWAV[dA]HL-NH2)
7 | > 10000 | CC(=O)N[C@@H](Cc1c[nH]c2ccccc12)C(=O)N[C@@H](C)C(=O)N[C@H](C(=O)N[C@H](C)C(=O)N[C@@H](Cc1c[nH]cn1)C(N)=O)C(C)C [Nα-AcetylW A V a H #] (Ac-WAV[dA]H-NH2)
8 | > 10000 | CCCCCCCCCCCC(=O)N[C@@H](CCC(N)=O)C(=O)N[C@@H](Cc1c[nH]c2ccccc12)C(=O)N[C@@H](C)C(=O)N[C@H](C(=O)N[C@H](C)C(=O)N[C@@H](Cc1c[nH]cn1)C(N)=O)C(C)C [Nα-LaurylQ W A V a H #] (Lauroyl-QWAV[dA]H-NH2)
9 | > 10000 | CCCCCCCCCCCC(=O)N[C@@H](Cc1c[nH]c2ccccc12)C(=O)N[C@@H](C)C(=O)N[C@H](C(=O)N[C@H](C)C(=O)N[C@@H](Cc1c[nH]cn1)C(N)=O)C(C)C [Nα-LaurylW A V a H #] (Lauroyl-WAV[dA]H-NH2)
10 | > 10000 | CCCCCCCC(=O)N[C@@H](Cc1c[nH]c2ccccc12)C(=O)N[C@@H](C)C(=O)N[C@H](C(=O)N[C@H](C)C(=O)N[C@@H](Cc1c[nH]cn1)C(N)=O)C(C)C [Nα-OctylW A V a H #] (Octanoyl-WAV[dA]H-NH2)
11 | > 10000 | CCCCCCCCCCCCCCCC(=O)N[C@@H](CCC(N)=O)C(=O)N[C@@H](Cc1c[nH]c2ccccc12)C(=O)N[C@@H](C)C(=O)N[C@H](C(=O)N[C@H](C)C(=O)N[C@@H](Cc1c[nH]cn1)C(N)=O)C(C)C [Nα-PalmitylQ W A V a H #] (Palmitoyl-QWAV[dA]H-NH2)
12 | > 10000 | CCCCCCCCCCCCCCCC(=O)N[C@@H](Cc1c[nH]c2ccccc12)C(=O)N[C@@H](C)C(=O)N[C@H](C(=O)N[C@H](C)C(=O)N[C@@H](Cc1c[nH]cn1)C(N)=O)C(C)C [Nα-PalmitylW A V a H #] (Palmitoyl-WAV[dA]H-NH2)
